# Measurements as given in patent US20100303790A1, “USE OF BILIVERDIN REDUCTASE (BVR) AND BVR PEPTIDE FRAGMENTS TO TREAT CORONARY DISORDERS” (UNIVERSITY OF ROCHESTER, priority 2009, published 2010).
# “Also recorded” adds a separate entry of the source.
# Columns and labels:
# Type in all cases: in vivo, rat
# [1] = system: cardiomyocytes in the intact heart; assay: Langendorff perfused heart: apoptosis (TUNEL, genomic DNA fragmentation); conditions: for apoptosis in cardiomyocytes of the perfused heart (TUNEL): 0.1 μM ISO, peptides 25 μM together with ISO
# Excerpt: Analysis of Apoptosis: The terminal deoxyribonucleotide transferase-mediated dUTP nick-end labeling (TUNEL) assay was used to detect in situ DNA fragmentation, using the In Situ Cell Death Detection Kit (Roche) as described previously (Ding et al., “Functional Role of Phosphodiesterase 3 in Cardiomyocyte Apoptosis: Implication in Heart Failure,” Circulation 111:2469-2476 (2005), which are hereby incorporated by reference in their entirety). In addition, the cells were stained for cardiomyocyte-specific sarcomeric α-actinin with the antibody EF-53 to distinguish cardiomyocytes from contaminating fibroblasts; and only EF-53 positive cells were counted. Three independent experiments were performed and an average of 1,000 EF-53 positive cells from random fields were analyzed.
# DNA Electrophoresis: Total cellular DNA was isolated from untreated and treated cells by lysis in 10 mM Tris-HCl, pH 7.8; 1 mM, EDTA, 10 mM NaCl, 1% (w/v) SDS and 1 mg/ml proteinase K at 60° C. for 2 hours. The lysate was extracted twice each with phenol-choloroform (1:1, v/v) and chloroform, followed by precipitation with ethanol. The precipitate was collected by centrifugation, washed once in 70% ethanol, and resuspended in TE containing 1 mg/ml RNase at 37° C. for 30 min. DNA was resolved by electrophoresis in 2.0% agarose gels containing ethidium bromide.
# (§1) In Vivo Experimental Langendorff Model: Male Sprague-Dawley rats weighing 250-300 g (Charles River, Boston, Mass.) were used in this study; the protocol is based on that described by Tompkins et al., “Mitochondrial Dysfunction in Cardiac Ischemia-Reperfusion Injury: ROS From Complex I, Without Inhibition,” Biochim Biophys Acta 1762:223-231 (2006), which is hereby incorporated by reference in its entirety, with minor modification. The rats were fed a standard rat chow and had water ad libitum. All experiments were approved by the University of Rochester Institutional Animal Care and Use Committee. Rats were given two subcutaneous injections of isoproterenol (ISO) (0.01 mg/kg), 6 hours apart, then anesthetized with freshly prepared Avertin (2,2,2-tribromoethanol, […] injected intraperitoneally), and treated with heparin (5000 U/kg), i.p., to protect the heart against microthrombi. The aorta was cannulated in situ with a 22-gauge needle filled with warm Krebs-Henseleit (KH) buffer. The heart was rapidly transferred (<10 s.) to a perfusion apparatus, and retrograde (Langendorff) perfusion begun with 37° C. KH buffer gassed with 95% O2 plus 5% CO2, in constant flow mode (12 ml/min). […] Hemodynamics and heart rate were recorded by inserting a water-filled balloon connected to a transducer (Radnoti LLC, model no. 159904B) into the left ventricle. […]
# [2] = Langendorff perfused heart: BVR and HO-2 protein by western blot; conditions: 3 hours perfusion; for HO-2 protein expression: peptide 25 μM with 0.1 μM ISO; for BVR protein expression: peptide 25 μM
# Experimental: Western Blot Analysis: Cell lysates were prepared by homogenization in RIPA buffer (40 mM Tris-HCl, pH 7.5, 1 mM EDTA, 1 mM DTT, 0.1 mM Na3VO4, 10 μg/ml aprotinin, 5 μg/ml pepstatin, 20 μg/ml leupeptin, 1 mM bezamidine followed by centrifugation at 800×g for 10 minutes at 4° C. (Ding et al., “Functional Role of Phosphodiesterase 3 in Cardiomyocyte Apoptosis: Implication in Heart Failure,” Circulation 111:2469-2476 (2005), which is hereby incorporated by reference in its entirety). Supernatant proteins were resolved by SDS-PAGE and transferred to nitrocellulose. Western blots were examined using antibodies against β-actin (Cell Signaling), BVR (Huang et al., “Detection of 10 Variants of Biliverdin Reductase in Rat Liver by Two-Dimensional Gel Electrophoresis,” J Biol Chem 264:7844-7849 (1989), which is hereby incorporated by reference in its entirety), HO-1, HO-2 (Panahian et al., “Site of Injury-Directed Induction of Heme Oxygenase-1 and -2 in Experimental Spinal Cord Injury Differential Functions in Neuronal Defense Mechanisms?” J Neurochem 76:539-554 (2001), which is hereby incorporated by reference in its entirety), and cleaved caspase-3 (Cell Signaling, Beverly Mass.). The secondary antibody was horseradish peroxidase-conjugated goat anti-rabbit IgG (1:2,000, Bio-Rad).
# as §1
# isolated perfused heart = assay: Langendorff perfused heart: left ventricle contractile function and heart rate; conditions: for left ventricle contractile function (systolic pressure, developed pressure, dp/dt, -dp/dt): peptide 25 μM with 0.1 μM isoproterenol, vs isoproterenol alone
# Excerpt: In Vivo Experimental Langendorff Model: Male Sprague-Dawley rats weighing 250-300 g (Charles River, Boston, Mass.) were used in this study; the protocol is based on that described by Tompkins et al., “Mitochondrial Dysfunction in Cardiac Ischemia-Reperfusion Injury: ROS From Complex I, Without Inhibition,” Biochim Biophys Acta 1762:223-231 (2006), which is hereby incorporated by reference in its entirety, with minor modification. The rats were fed a standard rat chow and had water ad libitum. All experiments were approved by the University of Rochester Institutional Animal Care and Use Committee. Rats were given two subcutaneous injections of isoproterenol (ISO) (0.01 mg/kg), 6 hours apart, then anesthetized with freshly prepared Avertin (2,2,2-tribromoethanol, […] injected intraperitoneally), and treated with heparin (5000 U/kg), i.p., to protect the heart against microthrombi. The aorta was cannulated in situ with a 22-gauge needle filled with warm Krebs-Henseleit (KH) buffer. The heart was rapidly transferred (<10 s.) to a perfusion apparatus, and retrograde (Langendorff) perfusion begun with 37° C. KH buffer gassed with 95% O2 plus 5% CO2, in constant flow mode (12 ml/min). Perfusion was performed using 0.1 μM ISO or KH buffer as a control; the hBVR-derived peptides KKRILHC^281 (25 μM) or KYCCSRK^296 (25 μM) were included in perfusion medium with or without ISO. Hemodynamics and heart rate were recorded by inserting a water-filled balloon connected to a transducer (Radnoti LLC, model no. 159904B) into the left ventricle. The transducer was connected to a data acquisition system (DATAQ Instrument, Akron Ohio, Model: DI-205). At the end of each experiment, the heart was cut into 5 μm sections for TUNEL study or homogenized for western blots.
# The effect of peptides on the integrity of the heart was also examined in the perfusion system, by measuring left ventricle contractile function in the presence of isoproterenol as a function of time.
# [3] = peptide 25 μM with isoproterenol
Compound,apoptosis in cardiomyocytes of the perfused heart (TUNEL) [1],fragmentation of genomic DNA from perfused heart ([1]; peptide 25 μM with ISO),HO-2 protein expression [2],BVR protein expression [2],"left ventricle contractile function (systolic pressure, developed pressure, dp/dt, -dp/dt) (isolated perfused heart)",change in heart rate observed with isoproterenol alone (isolated perfused heart; [3]),time after initiating perfusion by which the increased rate of decline was observed (isolated perfused heart; [3]) [min],"heart rate, left ventricular systolic pressure, development pressure, dp/dt, -dp/dt over the course of the experiment (isolated perfused heart; 0.1 μM isoproterenol perfusion)"
KKRILHC (biliverdin reductase peptide) [KKRILHC^281],increase in apoptosis; also recorded: significant increases in apoptosis,fragmentation is detectable,inhibited the BVR-induced HO-2 increase; also recorded: virtually eliminated the induction of HO-2,do not affect protein expression,the rate of decline was increased; also recorded: significantly diminished cardiac function,Neither peptide affected the change in heart rate,≤ 30,
CC(C)NCC(O)c1ccc(O)c(O)c1 (centres unmarked) [isoproterenol],increased apoptosis,,,,,,,declined
KYCCSRK (biliverdin reductase peptide) [KYCCSRK^296],decreased apoptosis; also recorded: nearly complete reduction in apoptosis,,increased HO-2 protein expression; also recorded: greatly enhanced increase of HO-2 protein,do not affect protein expression,slowed the decrease in contractile function; also recorded: improved cardiac function,Neither peptide affected the change in heart rate,,
